Experimental data: article PMC10674160, “Synthesis and Preclinical Evaluation of Radiolabeled [^103Ru]BOLD-100” (Pharmaceutics, 2023)

How the values were obtained:
HCT116 cells = assay: MTT cytotoxicity assay, 96 h exposure; format: cell-based, human; settings: exposure time 96 h, mean ± SD
Protocol: (§1) The murine cancer cell line CT26 and the human cancer cell line HCT116 were both obtained from the American Type Culture Collection (ATCC). Both cell lines were grown as adherent monolayer cultures in 75 cm^2 culture flasks in RPMI 1640 medium (supplemented with 2 mM L-glutamine and 1% PenStrep, Gibco^TM) and 10% fetal bovine serum (FBS, Gibco^TM) at 37 °C under a humid atmosphere containing 5% CO2 and 95% air. For splitting, accutase® solution (Sigma Aldrich) was used.
(§2) Cell viability was determined by the colorimetric MTT assay. The cells were seeded in RPMI 1640 medium in a 96-well cell culture plate 24 h prior to treatment at a density of 1.5 × 10^3 (CT26) and 2 × 10^3 (HCT116) cells per well. A stock solution of compounds 3a and 3b was prepared in DMSO and then diluted with RPMI 1640 medium (maximum 0.5% v/v of DMSO per well). After serial dilutions, a 100 µL aliquot was added to each well ([…], 6.25, 3.13 µmol/L per well). […] Optical densities were measured at 490 nm with a Synergy^TM HTX Multi-Mode Reader (BioTek, Winooski, VT, USA), using a reference wavelength of 650 nm to correct for unspecific absorption. Concentration–effect curves were calculated relative to untreated controls. […]

CT26 cells = assay: MTT cytotoxicity assay, 96 h exposure; format: cell-based, murine; settings: exposure time 96 h, mean ± SD
Protocol: as §1, §2

[1] = parameters: method as in PMID 28848672; settings: phase I clinical study; cited from earlier work

Row | Structure (SMILES) | IC50 (HCT116 cells) | IC50 (CT26 cells) | maximum tolerated dose [1]
1 | [Cl][Ru-]([Cl])([Cl])[Cl].[Na+].c1ccc2[nH]ncc2c1.c1ccc2[nH]ncc2c1 [3a, sodium trans-[tetrachloridobis(indazole)ruthenate(III)]] | 99.4 ± 14.5 µM | 188 ± 17.8 µM | 625 mg/m^2
2 | [Cl][Ru]([Cl])([Cl])[Cl].[Na+].c1ccc2[nH]ncc2c1.c1ccc2[nH]ncc2c1 [3b, [^103Ru]sodium trans-[tetrachloridobis(indazole)ruthenate(III)]] | 94.7 ± 11.7 µM | 173 ± 15.1 µM | 
